In ChEMBL document CHEMBL1201862, “PubChem BioAssay data set” (2004):
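Results reflect a 48-hour exposure of cells in 96-well plates to compound at five concentrations. At the GI50, growth is halved.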 Activity calls are given as the source filed them. Rule as the data show it: active = GI50 up to about 1.1 µM and inactive = higher.

Columns and labels:
Experiment in all cases: NCI-60 cell line screen, 48 h
[1] = tested on: SNB-75
[2] = tested on: TK-10
[3] = tested on: U-251
[4] = tested on: HCC 2998
[5] = tested on: SF-295
[6] = tested on: SN12C
[7] = tested on: SF-539
[8] = tested on: SNB-78
[9] = tested on: SF-268
[10] = tested on: KM-20L2
[11] = tested on: NCI-H460
[12] = tested on: M19-MEL
[13] = tested on: DMS-273
[14] = tested on: SW-620
[15] = tested on: NCI-H23
[16] = tested on: MOLT-4
[17] = tested on: HT-29
[18] = tested on: KM12
[19] = tested on: A549
[20] = tested on: NCI-H522
[21] = tested on: UACC-257
[22] = tested on: CCRF-CEM
[23] = tested on: SK-MEL-28
[24] = tested on: Malme-3M
[25] = tested on: RXF 393
[26] = tested on: NCI-H226
[27] = tested on: DLD-1
[28] = tested on: LOX IMVI
[29] = tested on: UO-31
[30] = tested on: HL-60
[31] = tested on: OVCAR-5
[32] = tested on: ACHN
[33] = tested on: HCT-116
[34] = tested on: EKVX
[35] = tested on: OVCAR-8
[36] = tested on: CAKI-1
[37] = tested on: HCT-15
[38] = tested on: DMS-114
[39] = tested on: HOP-92
[40] = tested on: SK-MEL-2
[41] = tested on: SK-OV-3
[42] = tested on: HOP-18
[43] = tested on: K562
[44] = tested on: SNB-19
[45] = tested on: IGROV-1
[46] = tested on: COLO 205
[47] = tested on: M14
[48] = tested on: A498
[49] = tested on: 786-0
[50] = tested on: RPMI-8226
[51] = tested on: SK-MEL-5
[52] = tested on: LXFL 529
[53] = tested on: HOP-62
[54] = tested on: UACC-62
[55] = tested on: MDA-MB-231
[56] = tested on: Hs-578T
[57] = tested on: OVCAR-4
[58] = tested on: BT-549
[59] = tested on: MDA-MB-435
[60] = tested on: DU-145
[61] = tested on: MCF7
[62] = tested on: NCI/ADR-RES
[63] = tested on: OVCAR-3
[64] = tested on: T47D
[65] = tested on: MDA-N
[66] = tested on: PC-3
[67] = tested on: SR

## C=C(/C=C/C=C(/CCC=C(C)C)COC(C)=O)[C@@H]1CC[C@]2([C@H](CCCO)/C(=C(/C)C=O)CC[C@]2(C)O)[C@@H]1O
[1]
  GI50: > 10 µM (inactive)
[2]
  GI50: 14.2 µM (inactive)
[3]
  GI50: 15 µM (inactive)
[4]
  GI50: 7.4 µM (inactive)
[5]
  GI50: 0.973 µM (active)
[6]
  GI50: 15.8 µM (inactive)
[7]
  GI50: 14 µM (inactive)
[8]
  GI50: > 10 µM (inactive)
[9]
  GI50: 15.7 µM (inactive)
[10]
  GI50: 14.4 µM (inactive)
[11]
  GI50: 0.414 µM (active)
[12]
  GI50: 15.7 µM (inactive)
[13]
  GI50: 2.27 µM (inactive)
[14]
  GI50: 2.42 µM (inactive)
[15]
  GI50: 18.8 µM (inactive)
[16]
  GI50: 9.29 µM (inactive)
[17]
  GI50: 14.8 µM (inactive)
[18]
  GI50: 16.2 µM (inactive)
[19]
  GI50: 3.27 µM (inactive)
[20]
  GI50: 17.1 µM (inactive)
[21]
  GI50: 17.7 µM (inactive)
[22]
  GI50: 1.86 µM (inactive)
[23]
  GI50: 13.7 µM (inactive)
[24]
  GI50: 0.0429 µM (active)
[25]
  GI50: 18.4 µM (inactive)
[26]
  GI50: 4.61 µM (inactive)
[27]
  GI50: 11.9 µM (inactive)
[28]
  GI50: 10.4 µM (inactive)
[29]
  GI50: 12.7 µM (inactive)
[30]
  GI50: 0.912 µM (active)
[31]
  GI50: 39 µM (inactive)
[32]
  GI50: 11.5 µM (inactive)
[33]
  GI50: 19.5 µM (inactive)
[34]
  GI50: 18.1 µM (inactive)
[35]
  GI50: 22.1 µM (inactive)
[36]
  GI50: 3.05 µM (inactive)
[37]
  GI50: 14.5 µM
[38]
  GI50: 14.2 µM (inactive)
[39]
  GI50: < 0.01 µM (active)
[40]
  GI50: 17.9 µM (inactive)
[41]
  GI50: 29.1 µM (inactive)
[42]
  GI50: 11.5 µM (inactive)
[43]
  GI50: 2.92 µM (inactive)
[44]
  GI50: 16.1 µM (inactive)
[45]
  GI50: 17.2 µM (inactive)
[46]
  GI50: 0.558 µM (active)
[47]
  GI50: 11 µM (inactive)

## CC1=N/C(=C\c2cccc([N+](=O)[O-])c2)C(=O)O1
[1]
  GI50: 15.1 µM (inactive)
[2]
  GI50: > 100 µM (inactive)
[3]
  GI50: > 100 µM (inactive)
[4]
  GI50: > 100 µM (inactive)
[48]
  GI50: > 100 µM (inactive)
[5]
  GI50: > 100 µM (inactive)
[6]
  GI50: > 100 µM (inactive)
[7]
  GI50: > 100 µM (inactive)
[8]
  GI50: 86.1 µM (inactive)
[9]
  GI50: > 100 µM (inactive)
[10]
  GI50: > 100 µM (inactive)
[11]
  GI50: > 100 µM (inactive)
[12]
  GI50: > 100 µM (inactive)
[14]
  GI50: > 100 µM (inactive)
[15]
  GI50: > 100 µM (inactive)
[49]
  GI50: > 100 µM (inactive)
[16]
  GI50: > 100 µM (inactive)
[17]
  GI50: > 100 µM (inactive)
[50]
  GI50: > 100 µM (inactive)
[18]
  GI50: > 100 µM (inactive)
[19]
  GI50: > 100 µM (inactive)
[20]
  GI50: > 100 µM (inactive)
[51]
  GI50: > 100 µM (inactive)
[21]
  GI50: > 100 µM (inactive)
[22]
  GI50: > 100 µM (inactive)
[23]
  GI50: > 100 µM (inactive)
[24]
  GI50: > 100 µM (inactive)
[25]
  GI50: > 100 µM (inactive)
[27]
  GI50: > 100 µM (inactive)
[29]
  GI50: > 100 µM (inactive)
[30]
  GI50: > 100 µM (inactive)
[31]
  GI50: > 100 µM (inactive)
[32]
  GI50: > 100 µM (inactive)
[33]
  GI50: > 100 µM (inactive)
[52]
  GI50: > 100 µM (inactive)
[34]
  GI50: > 100 µM (inactive)
[53]
  GI50: > 100 µM (inactive)
[35]
  GI50: > 100 µM (inactive)
[37]
  GI50: > 100 µM
[54]
  GI50: > 100 µM (inactive)
[38]
  GI50: > 100 µM (inactive)
[39]
  GI50: > 100 µM (inactive)
[40]
  GI50: > 100 µM (inactive)
[42]
  GI50: > 100 µM (inactive)
[43]
  GI50: > 100 µM (inactive)
[44]
  GI50: > 100 µM (inactive)
[45]
  GI50: > 100 µM (inactive)
[46]
  GI50: > 100 µM (inactive)
[47]
  GI50: > 100 µM (inactive)

## COc1ccc(NC(=S)c2ccc([N+](=O)[O-])o2)cc1
[1]
  GI50: 3.19 µM (inactive)
[2]
  GI50: 3.07 µM (inactive)
[3]
  GI50: 0.885 µM (active)
[4]
  GI50: 1.62 µM (inactive)
[48]
  GI50: 15.6 µM (inactive)
[5]
  GI50: 3.6 µM (inactive)
[55]
  GI50: 2.48 µM (inactive)
[6]
  GI50: 2.13 µM (inactive)
[7]
  GI50: 0.178 µM (active)
[9]
  GI50: 2.04 µM (inactive)
[11]
  GI50: 2.18 µM (inactive)
[56]
  GI50: 2.33 µM (inactive)
[57]
  GI50: 1.55 µM (inactive)
[14]
  GI50: 0.918 µM (active)
[15]
  GI50: 1.6 µM (inactive)
[49]
  GI50: 1.97 µM (inactive)
[16]
  GI50: 3.22 µM (inactive)
[17]
  GI50: 1.26 µM (inactive)
[50]
  GI50: 1.19 µM (inactive)
[18]
  GI50: 1.6 µM (inactive)
[19]
  GI50: 3.18 µM (inactive)
[20]
  GI50: 1.29 µM (inactive)
[58]
  GI50: 1.85 µM (inactive)
[51]
  GI50: 0.65 µM (active)
[21]
  GI50: 2.7 µM (inactive)
[22]
  GI50: 2.14 µM (inactive)
[23]
  GI50: 3.22 µM (inactive)
[24]
  GI50: 2.37 µM (inactive)
[59]
  GI50: 2.06 µM (inactive)
[25]
  GI50: 1.99 µM (inactive)
[26]
  GI50: 0.82 µM (active)
[28]
  GI50: 1.12 µM (inactive)
[60]
  GI50: 3.17 µM (inactive)
[29]
  GI50: 2.03 µM (inactive)
[30]
  GI50: 1.99 µM (inactive)
[31]
  GI50: 3.02 µM (inactive)
[32]
  GI50: 2.01 µM (inactive)
[33]
  GI50: 1.52 µM (inactive)
[34]
  GI50: 2.92 µM (inactive)
[53]
  GI50: 2.82 µM (inactive)
[35]
  GI50: 1.28 µM (inactive)
[36]
  GI50: 3.44 µM (inactive)
[37]
  GI50: 0.895 µM
[54]
  GI50: 1.77 µM (inactive)
[61]
  GI50: 1.8 µM (inactive)
[39]
  GI50: 7.8 µM (inactive)
[62]
  GI50: 0.678 µM (active)
[40]
  GI50: 1.69 µM (inactive)
[41]
  GI50: 12.3 µM (inactive)
[63]
  GI50: 1.19 µM (inactive)
[43]
  GI50: 2.07 µM (inactive)
[64]
  GI50: 3.01 µM (inactive)
[44]
  GI50: 2.72 µM (inactive)
[45]
  GI50: 1.82 µM (inactive)
[46]
  GI50: 0.386 µM (active)
[65]
  GI50: 2.29 µM (inactive)
[66]
  GI50: 1.32 µM (inactive)
[47]
  GI50: 2.88 µM (inactive)
[67]
  GI50: 0.927 µM (active)
